Test results taken from US20240383873A1, “PESTICIDALLY ACTIVE CYCLIC AMINE COMPOUNDS” (SYNGENTA CROP PROTECTION AG, priority 2021, published 2024).

The compounds below were run on Tetranychus Urticae (Two-Spotted Spider Mite) (assay: Tetranychus urticae (two-spotted spider mite): feeding/contact activity). Details: foliar, 192 h, application rate of 200 ppm, bean leaf discs sprayed, mixed population (mobile stages), 8 days after infestation.
Assay type: in vivo
Protocol: Example B1: Tetranychus Urticae (Two-Spotted Spider Mite): Feeding/Contact Activity
Bean leaf discs on agar in 24-well microtiter plates were sprayed with aqueous test solutions prepared from 10'000 ppm DMSO stock solutions. After drying the leaf discs were infested with a mite population of mixed ages. The samples were assessed for mortality on mixed population (mobile stages) 8 days after infestation.

Structure (SMILES) | mortality at 200 ppm [%]
CN(C)S(=O)(=O)C1CCN(C(=O)c2cc(C#N)c(OCc3ccc4c(c3)OC(F)(F)O4)nc2C(F)(F)F)CC1 [Compound P1.24, 1-[5-Cyano-6-[(2,2-difluoro-1,3-benzodioxol-5-yl)methoxy]-2-(trifluoromethyl)pyridine-3-carbonyl]-N,N-dimethyl-piperidine-4-sulfonamide] | ≥ 80
CN(C)C(=O)CC1CCN(C(=O)c2cc(C#N)c(OCc3cc(C(F)(F)F)ccc3F)nc2C(F)(F)F)CC1 [Compound P1.37, 2-[1-[5-Cyano-6-[[2-fluoro-5-(trifluoromethyl)phenyl]methoxy]-2-(trifluoromethyl)pyridine-3-carbonyl]-4-piperidyl]-N,N-dimethyl-acetamide] | ≥ 80
CN(C)C(=O)CN1CCN(C(=O)c2cc(C#N)c(OCc3cc(C(F)(F)F)ccc3F)nc2C(F)(F)F)CC1 [Compound P2.6, 2-[4-[5-Cyano-6-[[2-fluoro-5-(trifluoromethyl)phenyl]methoxy]-2-(trifluoromethyl)pyridine-3-carbonyl]piperazin-1-yl]-N,N-dimethyl-acetamide] | ≥ 80
CNS(=O)(=O)C1CCN(C(=O)c2cc(C#N)c(OCc3cc(C(F)(F)F)ccc3F)nc2C(F)(F)F)CC1 [Compound P1.1, 1-[5-cyano-6-[[2-fluoro-5-(trifluoromethyl)phenyl]methoxy]-2-(trifluoromethyl)pyridine-3-carbonyl]-N-methyl-piperidine-4-sulfonamide] | ≥ 80
